{"source": "patent US20260234180A1", "about": "“AMINO ACID DERIVATIVE, PREPARATION METHOD THEREFOR, AND PHARMACEUTICAL COMPOSITION FOR TREATING HEPATITIS, COMPRISING SAME” (priority 2021, published 2026)", "molecular_target": "T1, NTCP (Na+ taurocholate cotransporting peptide), HepG2-hNTCP-C4 cell line (Homo sapiens, UniProt Q14973)", "T1 construct": "expressed in transfected cells; host or cells: HepG2-hNTCP-C4 (HepG2 cells expressing human NTCP)", "T1 sequence (Q14973 1-349)": "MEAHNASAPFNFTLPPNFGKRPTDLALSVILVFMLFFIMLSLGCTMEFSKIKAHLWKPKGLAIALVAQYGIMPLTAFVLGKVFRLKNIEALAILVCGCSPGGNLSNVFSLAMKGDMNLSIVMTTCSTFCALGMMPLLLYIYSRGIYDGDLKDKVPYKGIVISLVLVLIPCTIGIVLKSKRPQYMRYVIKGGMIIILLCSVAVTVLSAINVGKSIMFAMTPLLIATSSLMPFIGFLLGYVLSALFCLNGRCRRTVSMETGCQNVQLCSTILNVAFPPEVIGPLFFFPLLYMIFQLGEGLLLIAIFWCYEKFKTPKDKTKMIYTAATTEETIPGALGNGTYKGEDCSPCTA", "assay": "Inhibition of binding between FITC-labelled PreS1 and NTCP expressing cell line, flow cytometry", "details": "for difference in degree of competitive inhibition versus Comparative Example 2 (UDCA) / difference in degree of competitive inhibition versus the parent bile acid Comparative Example: compared to the HBV-induced group (PreS1-FITC) solely treated with PreS1; for relative fluorescence intensity in comparison with the parent bile acid Comparative Example: vs Comparative Example 2 (UDCA), 5 (DCA) or 6 (CDCA), method as Experimental Example 1-1; for ability to inhibit the binding between PreS1 and NTCP expressing cell lines (bile acid series) / relative fluorescence intensity compared to Comparative Example 1 (LCA): compound 50 µM; for difference in degree of competitive inhibition versus the parent bile acid Comparative Example: vs Comparative Example 5 or 6; for relative fluorescence intensity compared to Comparative Example 1 (LCA): 20 nM PreS1, 4° C., 2 hours, lower = more inhibited binding", "description": "HepG2-hNTCP-C4 cell line, a cell line expressing NTCP, was seeded in a 6 well plate at a density of 2×10^5/well and incubated at 4° C. for 30 minutes when the confluency reached 80% after overnight incubation for 2 days. Thereafter, 20 nM PreS1 (Myr-GTNL […]-Lys(FITC) (SEQ ID NO: 1)) and the compounds in Example 1, Examples 38 to 56 or the compound in Comparative Example 1 were treated by diluting in culture media at 4° C. at a concentration of 50 µM respectively, and the media was suctioned after 2 hours, followed by washing 3 times with 4° C. PBS. In order to take the cells off from the plate, 500 μl of 0.5 mM EDTA PBS solution was treated, and then incubation was performed at 37° C. for 15 minutes to check whether the cells fell off through an optical microscope. After taking off the cells by pipetting, the cells were collected in a 1.5 ml tube and centrifuged (4000 rpm, 4° C., 3 min). After suctioning the supernatant, the pellet was washed 3 times with 4° C. PBS, and then green fluorescence was measured via flow cytometry. In this case, taurocholic acid (TCA), a compound known as a substrate of NTCP to reduce the entry of HBV or HDV, was used as a positive control group.\nIn the graph at the top of FIG. 1, black (1) and red (2) indicate a negative control group with no treatment and an HBV-induced group (HBV preS1) solely treated with PreS1, respectively. Blue (HBV preS1+HBV entry inhibitor) (3) is the fluorescence value for each of Examples or Comparative Examples, evaluated that the closer to the negative control group, the more inhibited the binding between PreS1 and the NTCP cell line.\nThe experimental method was the same as in the Experimental Example 1-1, and 20 nM PreS1 and each compound were treated at 4 concentrations (0.2 μM, 2 μM, 10 μM, 50 μM).\nWith an expectation that there is a structure-activity relationship among compounds composed of bile acid and amino acids, for each of bile acids in Comparative Example 1 (lithocholic acid, LCA), Comparative Example 2 (ursodeoxycholic acid, UDCA), Comparative Example 3 (cholic acid, CA), Comparative Example 4 (hyodeoxycholic acid, HDCA), Comparative Example 5 (deoxycholic acid, DCA), and Comparative Example 6 (chenodeoxycholic acid, CDCA), an evaluation experiment was conducted on an ability to inhibit the binding between PreS1 and NTCP expressing cell lines, and also for Examples 1 (LCA-Ile) and Example 44 (LCA-Val) as well as the compounds in Example 2 (UDCA-Ile), Example 3 (UDCA-Val), Example 6 (CA-Ile), Example 7 (CA-Val), Example 8 (HDCA-Ile), Example 9 (HDCA-Val), Example 10 (DCA-Ile), Example 11 (DCA-Val), Example 14 (CDCA-Ile), and Example 15 (CDCA-Val) in which bile acid parts (lithocholic acid) of Example 1 (LCA-Ile) and Example 44 (LCA-Val) were substituted with other types of bile acids in Comparative Examples 2 to 6, an evaluation experiment was conducted on an ability to inhibit the binding between PreS1 and NTCP expressing cell lines. The experimental method was the same as in the Experimental Example 1-1, and 18 compounds in the Comparative Examples 1 to 6, Examples 1 to 3, Examples 6 to 11, Examples 14 to 15, and Example 44 were treated at a concentration of 50 µM along with 20 nM PreS1.\nIn FIG. 9, an evaluation experiment was conducted to check a degree of inhibiting the binding between PreS1 and NTCP expressing cell lines for compounds in Examples 4 to 5, Examples 12 to 13, Examples 16 to 17, and Comparative Examples 2 (ursodeoxycholic acid, UDCA), Comparative Examples 5 (deoxycholic acid, DCA), and Comparative Examples 6 (chenodeoxycholic acid, CDCA) according to the present disclosure. The experimental method was the same as the Experimental Example 1-1.\nIn the Experimental Examples 1-4, it was determined whether there is additionally concentration dependence for Example 4 (UDCA-Trp), a compound with good inhibitory ability. […]", "data": [{"smiles": "C[C@H](CCC(=O)N[C@@H](Cc1c[nH]c2ccccc12)C(=O)O)[C@H]1CC[C@H]2[C@@H]3[C@@H](O)C[C@@H]4C[C@H](O)CC[C@]4(C)[C@H]3CC[C@]12C", "note": "[Example 4, (S)-2-((R)-4-((3R,5S,7S,8R,9S,10S,13R,14S,17R)-3,7-dihydroxy-10,13-dimethyl-hexadecahydro-1H-cyclopenta[a]phenanthren-17-yl)pentanamido)-3-(1H-indol-3-yl)propanoic acid]", "values": [{"measurement": "effect of inhibiting the binding between PreS1 and NTCP expressing cell lines by treatment concentration", "setting": "2 μM, 10 μM, 20 μM, 50 μM, 20 nM PreS1", "value": "concentration dependent"}, {"measurement": "difference in degree of competitive inhibition versus Comparative Example 2 (UDCA)", "value": "about 2 times"}, {"measurement": "relative fluorescence intensity in comparison with the parent bile acid Comparative Example", "value": "low"}]}, {"smiles": "C[C@H](CCC(=O)N[C@@H](Cc1ccc(O)cc1)C(=O)O)[C@H]1CC[C@H]2[C@@H]3[C@@H](O)C[C@@H]4C[C@H](O)CC[C@]4(C)[C@H]3CC[C@]12C", "note": "[Example 5, (S)-2-((R)-4-((3R,5S,7S,8R,9S,10S,13R,14S,17R)-3,7-dihydroxy-10,13-dimethyl-hexadecahydro-1H-cyclopenta[a]phenanthren-17-yl)pentanamido)-3-(4-hydroxyphenyl)propanoic acid]", "values": [{"measurement": "difference in degree of competitive inhibition versus Comparative Example 2 (UDCA)", "value": "about 2 times"}, {"measurement": "relative fluorescence intensity in comparison with the parent bile acid Comparative Example", "value": "low"}]}, {"smiles": "CC[C@@H](C)[C@H](NC(=O)CC[C@@H](C)[C@H]1CC[C@H]2[C@@H]3C[C@H](O)[C@@H]4C[C@H](O)CC[C@]4(C)[C@H]3CC[C@]12C)C(=O)O", "note": "[Example 8, (2S,3R)-2-((R)-4-((3R,5R,6S,8S,9S,10R,13R,14S,17R)-3,6-dihydroxy-10,13-dimethyl-hexadecahydro-1H-cyclopenta[a]phenanthren-17-yl)pentanamido)-3-methylpentanoic acid]", "values": [{"measurement": "ability to inhibit the binding between PreS1 and NTCP expressing cell lines (bile acid series)", "setting": "20 nM PreS1", "value": "relatively excellent"}]}, {"smiles": "CC(C)[C@H](NC(=O)CC[C@@H](C)[C@H]1CC[C@H]2[C@@H]3C[C@H](O)[C@@H]4C[C@H](O)CC[C@]4(C)[C@H]3CC[C@]12C)C(=O)O", "note": "[Example 9, (S)-2-((R)-4-((3R,5R,6S,8S,9S,10R,13R,14S,17R)-3,6-dihydroxy-10,13-dimethyl-hexadecahydro-1H-cyclopenta[a]phenanthren-17-yl)pentanamido)-3-methylbutanoic acid]", "values": [{"measurement": "ability to inhibit the binding between PreS1 and NTCP expressing cell lines (bile acid series)", "setting": "20 nM PreS1", "value": "relatively excellent"}]}, {"smiles": "C[C@H](CCC(=O)N[C@@H](Cc1c[nH]c2ccccc12)C(=O)O)[C@H]1CC[C@H]2[C@@H]3CC[C@@H]4C[C@H](O)CC[C@]4(C)[C@H]3C[C@H](O)[C@]12C", "note": "[Example 12, (S)-2-((R)-4-((3R,5R,8R,9S,10S,12S,13R,14S,17R)-3,12-dihydroxy-10,13-dimethyl-hexadecahydro-1H-cyclopenta[a]phenanthren-17-yl)pentanamido)-3-(1H-indol-3-yl)propanoic acid]", "values": [{"measurement": "difference in degree of competitive inhibition versus the parent bile acid Comparative Example", "value": 11.6, "unit": "%"}, {"measurement": "relative fluorescence intensity in comparison with the parent bile acid Comparative Example", "value": "the same or lower"}]}, {"smiles": "C[C@H](CCC(=O)N[C@@H](Cc1ccc(O)cc1)C(=O)O)[C@H]1CC[C@H]2[C@@H]3CC[C@@H]4C[C@H](O)CC[C@]4(C)[C@H]3C[C@H](O)[C@]12C", "note": "[Example 13, (S)-2-((R)-4-((3R,5R,8R,9S,10S,12S,13R,14S,17R)-3,12-dihydroxy-10,13-dimethyl-hexadecahydro-1H-cyclopenta[a]phenanthren-17-yl)pentanamido)-3-(4-hydroxyphenyl)propanoic acid]", "values": [{"measurement": "relative fluorescence intensity in comparison with the parent bile acid Comparative Example", "value": "the same or lower"}]}, {"smiles": "CC[C@@H](C)[C@H](NC(=O)CC[C@@H](C)[C@H]1CC[C@H]2[C@@H]3[C@H](O)C[C@@H]4C[C@H](O)CC[C@]4(C)[C@H]3CC[C@]12C)C(=O)O", "note": "[Example 14, (2S,3R)-2-((R)-4-((3R,5S,7R,8R,9S,10S,13R,14S,17R)-3,7-dihydroxy-10,13-dimethyl-hexadecahydro-1H-cyclopenta[a]phenanthren-17-yl)pentanamido)-3-methylpentanoic acid]", "values": [{"measurement": "ability to inhibit the binding between PreS1 and NTCP expressing cell lines (bile acid series)", "setting": "20 nM PreS1", "value": "relatively excellent"}]}, {"smiles": "C[C@H](CCC(=O)N[C@@H](Cc1c[nH]c2ccccc12)C(=O)O)[C@H]1CC[C@H]2[C@@H]3[C@H](O)C[C@@H]4C[C@H](O)CC[C@]4(C)[C@H]3CC[C@]12C", "note": "[Example 16, (S)-2-((R)-4-((3R,5S,7R,8R,9S,10S,13R,14S,17R)-3,7-dihydroxy-10,13-dimethyl-hexadecahydro-1H-cyclopenta[a]phenanthren-17-yl)pentanamido)-3-(1H-indol-3-yl)propanoic acid]", "values": [{"measurement": "difference in degree of competitive inhibition versus the parent bile acid Comparative Example", "value": 17.8, "unit": "%"}, {"measurement": "relative fluorescence intensity in comparison with the parent bile acid Comparative Example", "value": "low"}]}, {"smiles": "C[C@H](CCC(=O)N[C@@H](Cc1ccc(O)cc1)C(=O)O)[C@H]1CC[C@H]2[C@@H]3[C@H](O)C[C@@H]4C[C@H](O)CC[C@]4(C)[C@H]3CC[C@]12C", "note": "[Example 17, (S)-2-((R)-4-((3R,5S,7R,8R,9S,10S,13R,14S,17R)-3,7-dihydroxy-10,13-dimethyl-hexadecahydro-1H-cyclopenta[a]phenanthren-17-yl)pentanamido)-3-(4-hydroxyphenyl)propanoic acid]", "values": [{"measurement": "relative fluorescence intensity in comparison with the parent bile acid Comparative Example", "value": "low"}]}, {"smiles": "C[C@H](CCC(=O)N1CCCC1C(=O)O)[C@H]1CC[C@H]2[C@@H]3CC[C@@H]4C[C@H](O)CC[C@]4(C)[C@H]3CC[C@]12C", "note": "(stereo partly drawn) [Example 38, 1-((R)-4-((3R,5R,8R,9S,10S,13R,14S,17R)-3-hydroxy-10,13-dimethyl-hexadecahydro-1H-cyclopenta[a]phenanthren-17-yl)pentanoyl)pyrrolidine-2-carboxylic acid]", "values": [{"measurement": "relative fluorescence intensity compared to Comparative Example 1 (LCA)", "value": "low and lower"}]}, {"smiles": "C[C@H](O)[C@H](NC(=O)CC[C@@H](C)[C@H]1CC[C@H]2[C@@H]3CC[C@@H]4C[C@H](O)CC[C@]4(C)[C@H]3CC[C@]12C)C(=O)O", "note": "[Example 39, (2S,3S)-3-hydroxy-2-((R)-4-((3R,5R,8R,9S,10S,13R,14S,17R)-3-hydroxy-10,13-dimethyl-hexadecahydro-1H-cyclopenta[a]phenanthren-17-yl)pentanamido)butanoic acid]", "values": [{"measurement": "relative fluorescence intensity compared to Comparative Example 1 (LCA)", "value": "low and lower"}]}]}
